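Protocol summary: plate cells (96-well), add compound at 5 concentrations, incubate 48 h, interpolate endpoints linearly. TGI: total growth inhibition.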 Where only a bound is given, the exact number is not on record here.

Usually TGI stands for the concentration at which net growth stops. A low value points to more potent growth arrest.

Common to all, as to test: DTP human tumour cell line panel, 48 h
Assay [1] deals with HCT-116 colon.
For assay [2], the system named is NCI-H226 lung.
Assay [3] has as its system RXF 393 renal.
Assay [4] has as its system HCT-15 colon.
Assay [5] has as its system TK-10 renal.
The subject of assay [6] is A549 NSCLC.

In the case of `CC(=O)c1cn(-c2ccc(Cl)cc2)c(=O)c2c(N)n[nH]c12`, the concentration for total growth inhibition (TGI) in assay [1], in assay [2], in assay [3], in assay [4] and in assay [5] was over 100 µM in each case.
Turning to `Nc1c(C(=O)c2ccccc2)[nH]c(NCc2ccccc2)c1C(=S)Nc1ccccc1`, the TGI in assay [1], in assay [6], in assay [2], in assay [3], in assay [4] and in assay [5] was over 100 µM each time.
In the case of `CCCCCCCCCN1CCC(=O)C(C(=O)OC)C1` (centres undefined), the TGI in assay [1] is 26.9 µM; in assay [6] it was 30.7 µM; in assay [2] it was 27.5 µM; in assay [3] it was 32.7 µM; in assay [4], 26.9 µM; in assay [5] it was 31.4 µM.
On to `C[C@@H]1OC(=O)C[C@H]2CC(=O)N(CCc3cn(S(=O)(=O)C(F)(F)F)c4ccccc34)C[C@@H]21`, for which the TGI in assay [1], in assay [6], in assay [3], in assay [4] and in assay [5] was over 100 µM each time.
On to `CSCCC(NC(c1ccccc1)c1ccccc1)[P+](=O)O` (centres undefined), for which the TGI in assay [1], in assay [6], in assay [2], in assay [4] and in assay [5] was over 100 µM in each case.
For `CC1OC(=O)c2ccccc2NC1=O` (centres undefined), the TGI in assay [1], in assay [6], in assay [2], in assay [3], in assay [4] and in assay [5] was over 100 µM in each case.
Turning to `CCC(=O)NCCc1c[nH]c2ccc(OC)cc12`, the TGI in assay [1], in assay [6], in assay [2], in assay [3], in assay [4] and in assay [5] was over 100 µM each time.
For `CC(Cc1ccc(O)c(O)c1)C(C)Cc1ccc(O)c(O)c1` (centres undefined), the TGI in assay [1] is 34.2 µM; in assay [6], over 88.4 µM; in assay [2] it was 59.8 µM; in assay [3], 31.7 µM; in assay [4], over 60.8 µM; in assay [5], over 87.7 µM.
Consider `CC(C)(C)OC(=O)N1CCC23CCCC2C(=O)CC=C13` (centres undefined), for which the TGI in assay [1], in assay [6], in assay [2], in assay [3], in assay [4] and in assay [5] was over 100 µM throughout.
For `CSc1c(C#N)c2n(c3ccccc3[n+]2C)c2ncccc12`, the TGI in assay [1] was over 100 µM; in assay [6], 77 µM; in assay [2] it was 49.9 µM; in assay [3], 37.2 µM; in assay [4], over 100 µM.
For the compound `CN1CCN(c2ccc3[nH]c(C4=C(O)c5nc(CO)n(C)c5C(=O)C4=O)nc3n2)CC1`, the concentration for total growth inhibition (TGI) was over 100 µM in assay [1]; over 100 µM in assay [6]; over 100 µM in assay [2]; 91.4 µM in assay [3]; over 100 µM in assay [4].
For `CSC(=NCCN=C(NS(=O)(=O)c1ccc(Cl)cc1)SC)NS(=O)(=O)c1ccc(Cl)cc1`, the total growth inhibition concentration (TGI) in assay [1], in assay [4] and in assay [5] was over 100 µM each time.
Regarding `S=C(Nc1ccc(Br)cn1)NC12CC3CC(CC(C3)C1)C2`, the total growth inhibition concentration (TGI) in assay [1] was 35.3 µM; in assay [6], 53.5 µM; in assay [2] it was 64.8 µM; in assay [3], 37 µM; in assay [4], over 100 µM.
As for `COC(=O)CCCCC/C(=C\C(=O)C(Cl)(Cl)Cl)OC`, the TGI in assay [1] was 49.6 µM; in assay [6], over 100 µM; in assay [3], 41.1 µM; in assay [4], 68.2 µM; in assay [5] it was 86.9 µM.
On to `CC(C)[Si](OC1=CCCCCC12C(=O)N(C)c1ccccc12)(C(C)C)C(C)C` (centres undefined), for which the TGI was found to be 48.8 µM in assay [6]; 39 µM in assay [2]; 21.8 µM in assay [3]; 33.8 µM in assay [4]; 80.9 µM in assay [5].
Turning to `N#Cc1c(-c2ccc(Cl)cc2)c(C#N)c(=O)n(NS(=O)(=O)c2ccccc2)c1-c1ccccc1`, the total growth inhibition concentration (TGI) in assay [1], in assay [6], in assay [3], in assay [4] and in assay [5] was over 25 µM each time.
For the compound `CCOC(=O)c1c(SCCO)n(-c2ccccc2)c(=S)n(-c2ccccc2)c1=O`, the TGI in assay [1], in assay [6], in assay [2], in assay [4] and in assay [5] was over 100 µM throughout.
On to `Cc1cc(=Nc2ccc3c(c2)c(N)cc(C)[n+]3C)nc(N)n1C`, for which the TGI in assay [1], in assay [6], in assay [3], in assay [4] and in assay [5] was over 100 µM each time.
As to `CSCCCCCCCCCCOc1ccc(C=C2C(=C(C#N)C#N)c3ccccc3C2=C(C#N)C#N)cc1`, the TGI in assay [1] came to 34.2 µM; in assay [2], 79.9 µM; in assay [3], 35.1 µM; in assay [4], 46.8 µM; in assay [5], 36.1 µM.
As for `CC1(C)CC(=O)c2c(nc3ccc4ccccc4c3c2-c2ccc(NC(=O)CCCCC(=O)Nc3ccc(-c4c5c(nc6ccc7ccccc7c46)CC(C)(C)CC5=O)cc3)cc2)C1`, the TGI in assay [1], in assay [6], in assay [2], in assay [4] and in assay [5] was over 100 µM each time.
As for `COc1cc2c(c(OC)c1OC)C(=O)CC2N` (centres undefined), the TGI in assay [1], in assay [6], in assay [2], in assay [4] and in assay [5] was over 100 µM in each case.
On to `C[C@@H]1CCC2[C@@H](C)C(=O)O[C@@H]3C4C[C@@H]1[C@@]23OO[C@@]4(C)O` (some centres undefined), for which the total growth inhibition concentration (TGI) in assay [1], in assay [6], in assay [3], in assay [4] and in assay [5] was over 100 µM each time.
